# Laboratory results: patent US6632843B1, “Treatment of bruxism” (priority 2000, dated 2003)
# What was measured:
# [1] = after application
# Description: Cyclobenzaprine is a 5-HT2 receptor antagonist and its muscle relaxant effect is due to inhibition of serotonergic neurons.
# [2] = taken orally; cited from earlier work
structure (smiles),measurement,setting,value
"CN(C)CCC=C1c2ccccc2C=Cc2ccccc21 [cyclobenzaprine, Cyclobenzaprine]",time to clinical improvement,[1],as early as the first 20 minutes
same,half life,[2],as long as one to three days
same,plasma protein binding,[2],highly bound to plasma proteins
